Assay results from patent publication US11072588B2, “Barbituric acid derivatives comprising cationic and lipophilic groups” (UNIVERSITETET I TROMSØ—NORGES ARKTISKE UNIVERSITET, priority 2017, dated 2021).
Values after ≈ are worked out from the molar mass of the structure shown.

What was measured:
A. baumanii K63-58 = test: MIC, multi-resistant clinical isolate; assay type: cell-based, Acinetobacter baumannii; conditions: A. baumanii K63-58, resistant to colistin; for MIC: Acinetobacter baumannii, K6358, 24 h, read-out: Antimicrobial activity (MIC); for selectivity index (EC50/MIC): RBC EC50 / MIC
Experimental: (§1) Working solutions of the test derivatives were prepared with up to 100% DMSO and stored at −20° C. If necessary, the solutions were heated to 40-80° C. before testing to facilitate complete dissolution. Double-distilled water was used in all dilutions prepared. […] A microdilution susceptibility test was used for MIC determination according to Clinical and Laboratory Standards Institute, “Methods for Dilution Antimicrobial Sisceptibility Tests for Bacteria That Graw Aerobically”, Approved Standard M07-A9, edition 2012, with modifications as described by Igumnova et al (Bioorg Med Chem, 2016, 24 (22), 5884-5894).
(§2) Briefly, the bacterial inoculum was adjusted to approximately 2.5-3×10^4 cells/mL in Mueller-Hinton broth (MHB, Difco Laboratories, USA), and incubated in a ratio of 1:1 with test derivatives in polystyrene 96-well flat-bottom microplates (NUNC, Roskilde, Denmark). Positive growth control (without test derivatives) and negative control (without bacteria) were included. The reference antibiotic was oxytetracycline hydrochloride (Sigma Aldrich, Saint Louis, Mo., USA). The microplates were incubated in an EnVision microplate reader (Perkin-Elmer, Turku, Finland) placed in an incubator set to 35° C. for 48 h. The MIC value was defined as the lowest concentration of derivative resulting in no bacterial growth as determined by OD600 measurement. All derivatives were tested in three parallels.
(§3) The MIC was determined as explained above with some exceptions; working solutions of test derivatives were prepared from concentrated DMSO stocks stored at room temperature, the density of the bacterial inoculum was increased 40× to 1-1.2×10^6 cells/mL, enterococci were incubated in Brain Heart Infusion broth (BHIB, Difco Laboratories, USA), the microplates were incubated for 24 h, and the derivatives were tested in four parallels.

A. baumanii K47-42 = test: MIC, multi-resistant clinical isolate; assay type: cell-based, Acinetobacter baumannii; conditions: for MIC: Acinetobacter baumannii, K4742, read-out: Antimicrobial activity (MIC); for selectivity index (EC50/MIC): RBC EC50 / MIC
Experimental: as §1, §2, §3

A. baumanii K55-13 = test: MIC, multi-resistant clinical isolate; assay type: cell-based, Acinetobacter baumannii; conditions: for MIC: Acinetobacter baumannii, K5513, read-out: Antimicrobial activity (MIC); for selectivity index (EC50/MIC): RBC EC50 / MIC
Experimental: as §1, §2, §3

A. baumanii K44-35 = test: MIC, multi-resistant clinical isolate; assay type: cell-based, Acinetobacter baumannii; conditions: for MIC: Acinetobacter baumannii, K4435, read-out: Antimicrobial activity (MIC); for selectivity index (EC50/MIC): RBC EC50 / MIC
Experimental: as §1, §2, §3

A. baumanii K12-21 = test: MIC, multi-resistant clinical isolate; assay type: cell-based, Acinetobacter baumannii; conditions: for MIC: Acinetobacter baumannii, K1221, read-out: Antimicrobial activity (MIC); for selectivity index (EC50/MIC): RBC EC50 / MIC
Experimental: as §1, §2, §3

E. coli 50739822 = test: MIC, multi-resistant clinical isolate; assay type: cell-based, Escherichia coli; conditions: for MIC: Escherichia coli, read-out: Antimicrobial activity (MIC); for selectivity index (EC50/MIC): RBC EC50 / MIC
Experimental: as §1, §2, §3

[1] = system: human metastatic melanoma (A2058, ATCC CRL-11147) cells; test: Anti-cancer activity against A2058 cells; assay type: cell-based; conditions: A2058, read-out: Anti-cancer IC50
Experimental: Cytotoxicity of the test compounds was evaluated after 72 hour exposure to human metastatic melanoma (A2058, ATCC CRL-11147) cells.
A2058 cells were grown overnight (2,000 cells/well), and then incubated with the test compounds (range of concentrations) diluted in MEM Earle's supplemented with gentamycin (10 μg/mL), non-essential amino acids (1%), sodium pyruvate (1 mM), L-alanyl-Lglutamine (2 mM), but without FBS (total volume was 100 μl) for […]. Ten μL of CellTiter 96® AQueous One Solution Reagent (Promega, Madison, Wis., USA) was added, and the plates were then further incubated for 1 hour.
Absorbance was measured at 485 nm in a DTX 880 Multimode Detector. Results were calculated as % survival compared to negative (assay media) and positive (Triton X-100; Sigma-Aldrich) controls.

[2] = Determination of haemolytic activity; assay type: cell-based; conditions: human red blood cells (washed, from heparinized fresh blood); human RBCs, 1 h, 37° C.; read-out: RBC: haemolytic activity against human RBCs (EC50)
Experimental: Hemolysis was determined using a heparinized fraction (1000 IU/mL) of freshly drawn blood. Blood collected in EDTA containing test tubes (Vacutest®, KIMA, Arzergrande, Italy) was used for determination of the hematocrit (hct). The heparinized blood was washed 3× with pre-warmed PBS and adjusted to a final hct of 4%. Derivatives in DMSO (50 mM) were added to a 96-well polypropylene V-bottom plate (NUNC, Fisher Scientific, Oslo, Norway) and serially diluted. The test concentration range was 500-4 μM with DMSO contents ≤1%. A solution of 1% triton X-100 was used as positive control for 100% hemolysis. As negative control a solution of 1% DMSO in PBS buffer was included. No signs of DMSO toxicity were detected. RBCs (1% v/v final concentration) were added to the well plate and incubated at 37° C. and 800 rpm for 1 h. After centrifugation (5 min, 3000 g), 100 μL of each well were transferred to a 96-well flat bottom plate and absorbance was measured at 545 nm with a microplate reader (VersaMax™, Molecular Devices, Sunnyvale, Calif., USA). The percentage of hemolysis was calculated as the ratio of the absorbance in the derivative-treated and surfactant treated samples, corrected for the PBS background. Three independent experiments were performed and EC50 values are presented as averages.

S. epidermidis = test: Anti-biofilm activity (inhibition of biofilm formation); assay type: cell-based; conditions: Staphylococcus epidermidis, read-out: Anti-biofilm IC50
S. aureus N315 = test: MIC, multi-resistant clinical isolate; assay type: cell-based, Staphylococcus aureus; conditions: for selectivity index (EC50/MIC): RBC EC50 / MIC, S. aureus N315; for MIC: Staphylococcus aureus, N315, read-out: Antimicrobial activity (MIC)
Experimental: as §1, §2, §3

S. aureus NCTC 10442 = test: MIC, multi-resistant clinical isolate; assay type: cell-based, Staphylococcus aureus; conditions: for selectivity index (EC50/MIC): RBC EC50 / MIC, S. aureus NCTC 10442; for MIC: Staphylococcus aureus, NCTC10442, read-out: Antimicrobial activity (MIC)
Experimental: as §1, §2, §3

S. aureus IHT 99040 = test: MIC, multi-resistant clinical isolate; assay type: cell-based, Staphylococcus aureus; conditions: for selectivity index (EC50/MIC): RBC EC50 / MIC; for MIC: Staphylococcus aureus, IHT99040, read-out: Antimicrobial activity (MIC)
Experimental: as §1, §2, §3

S. aureus strain WIS = test: MIC, multi-resistant clinical isolate; assay type: cell-based, Staphylococcus aureus; conditions: for selectivity index (EC50/MIC): RBC EC50 / MIC, S. aureus strain WIS; for MIC: Staphylococcus aureus, read-out: Antimicrobial activity (MIC)
Experimental: as §1, §2, §3

S. aureus strain 85/2082 = test: MIC, multi-resistant clinical isolate; assay type: cell-based, Staphylococcus aureus; conditions: for selectivity index (EC50/MIC): RBC EC50 / MIC, S. aureus strain 85/2082; for MIC: Staphylococcus aureus, 85/2082, read-out: Antimicrobial activity (MIC)
Experimental: as §1, §2, §3

Row | SMILES | MIC (A. baumanii K63-58) [µg/mL] | selectivity index (EC50/MIC) (A. baumanii K63-58) | MIC (A. baumanii K47-42) [µg/mL] | selectivity index (EC50/MIC) (A. baumanii K47-42) | MIC (A. baumanii K55-13) [µg/mL] | selectivity index (EC50/MIC) (A. baumanii K55-13) | MIC (A. baumanii K44-35) [µg/mL] | selectivity index (EC50/MIC) (A. baumanii K44-35) | MIC (A. baumanii K12-21) [µg/mL] | selectivity index (EC50/MIC) (A. baumanii K12-21) | MIC (E. coli 50739822) [µg/mL] | selectivity index (EC50/MIC) (E. coli 50739822) | IC50 [1] [µg/mL] | EC50 at 1 h [2] [µg/mL] | IC50 (S. epidermidis) [µg/mL] | selectivity index (EC50/MIC) (S. aureus N315) | MIC (S. aureus N315) [µg/mL] | selectivity index (EC50/MIC) (S. aureus NCTC 10442) | MIC (S. aureus NCTC 10442) [µg/mL] | selectivity index (EC50/MIC) (S. aureus IHT 99040) | further results
1 | NCCCCN1C(=O)N(CCCCN)C(=O)C(Cc2cc(Br)cc(Br)c2)(Cc2cc(Br)cc(Br)c2)C1=O [7(ii)] | 16 (≈ 20.9 µM) | (5) | 16 (≈ 20.9 µM) | (5) | 16 (≈ 20.9 µM) | (5) | 16 (≈ 20.9 µM) | (5) | 16 (≈ 20.9 µM) | (5) | 8 (≈ 10.4 µM) | (10) | 1 (≈ 1.31 µM) | 83 (≈ 108 µM) | 6 (≈ 7.83 µM) | (21) | 4 (≈ 5.22 µM) | (21) | 4 (≈ 5.22 µM) | (21) | MIC (S. aureus IHT 99040): 4 µg/mL (≈ 5.22 µM); selectivity index (EC50/MIC) (S. aureus strain WIS): (21); MIC (S. aureus strain WIS): 4 µg/mL (≈ 5.22 µM); selectivity index (EC50/MIC) (S. aureus strain 85/2082): (21); MIC (S. aureus strain 85/2082): 4 µg/mL (≈ 5.22 µM)
2 | CC(C)(C)c1ccc(CC2(Cc3ccc(C(C)(C)C)cc3)C(=O)N(CCCCNC(=N)N)C(=O)N(CCCCNC(=N)N)C2=O)cc1 [Compound 8(i), 1,1′-(4,4′-(5,5-bis(4-tert-butylbenzyl)-2,4,6-trioxodihydropyrimidine-1,3(2H,4H)-diyl)bis(butane-4,1-diyl))diguanidine] | 4 (≈ 6.18 µM) | (19) | 8 (≈ 12.4 µM) | (10) | 8 (≈ 12.4 µM) | (10) | 8 (≈ 12.4 µM) | (10) | 4 (≈ 6.18 µM) | (19) | 4 (≈ 6.18 µM) | (19) | 2 (≈ 3.09 µM) | 77 (≈ 119 µM) | 1 (≈ 1.55 µM) | (39) | 2 (≈ 3.09 µM) | (39) | 2 (≈ 3.09 µM) | (39) | MIC (S. aureus IHT 99040): 2 µg/mL (≈ 3.09 µM); selectivity index (EC50/MIC) (S. aureus strain WIS): (39); MIC (S. aureus strain WIS): 2 µg/mL (≈ 3.09 µM); selectivity index (EC50/MIC) (S. aureus strain 85/2082): (39); MIC (S. aureus strain 85/2082): 2 µg/mL (≈ 3.09 µM)
3 | CC(C)(C)c1ccc(CC2(Cc3ccc(C(C)(C)C)cc3)C(=O)N(CCCCN)C(=O)N(CCCCN)C2=O)cc1 [Compound 7(i), 1,3-bis(4-aminobutyl)-5,5-bis(4-tertbutylbenzyl) pyrimidin-2,4,6(1H,3H,5H)-trione] | 16 (≈ 28.4 µM) | (9) | 16 (≈ 28.4 µM) | (9) | 16 (≈ 28.4 µM) | (9) | 32 (≈ 56.9 µM) | (4) | 16 (≈ 28.4 µM) | (9) | 8 (≈ 14.2 µM) | (18) | 1 (≈ 1.78 µM) | 143 (≈ 254 µM) | 4 (≈ 7.11 µM) | (18) | 8 (≈ 14.2 µM) | (18) | 8 (≈ 14.2 µM) | (18) | MIC (S. aureus IHT 99040): 8 µg/mL (≈ 14.2 µM); selectivity index (EC50/MIC) (S. aureus strain WIS): (18); MIC (S. aureus strain WIS): 8 µg/mL (≈ 14.2 µM); selectivity index (EC50/MIC) (S. aureus strain 85/2082): (18); MIC (S. aureus strain 85/2082): 8 µg/mL (≈ 14.2 µM)
4 | CC(C)(C)c1cc(CC2(Cc3cc(C(C)(C)C)cc(C(C)(C)C)c3)C(=O)N(CCCCN)C(=O)N(CCCCN)C2=O)cc(C(C)(C)C)c1 [7(iii), 1,3-bis(4-aminobutyl)-5,5-bis(3,5-di-tert-butylbenzyl)-pyrimidin-2,4,6(1H,3H,5H)-trione] | 4 (≈ 5.93 µM) | (<1) | 4 (≈ 5.93 µM) | (<1) | 4 (≈ 5.93 µM) | (<1) | 4 (≈ 5.93 µM) | (<1) | 4 (≈ 5.93 µM) | (<1) | 4 (≈ 5.93 µM) | (<1) | 1 (≈ 1.48 µM) | < 4 | 1 (≈ 1.48 µM) | (<2) | 2 (≈ 2.96 µM) | (<2) | 2 (≈ 2.96 µM) | (<2) | MIC (S. aureus IHT 99040): 2 µg/mL (≈ 2.96 µM); selectivity index (EC50/MIC) (S. aureus strain WIS): (<2); MIC (S. aureus strain WIS): 2 µg/mL (≈ 2.96 µM); selectivity index (EC50/MIC) (S. aureus strain 85/2082): (<2); MIC (S. aureus strain 85/2082): 2 µg/mL (≈ 2.96 µM)
5 | NCCCCN1C(=O)N(CCCCN)C(=O)C(Cc2ccc3ccccc3c2)(Cc2ccc3ccccc3c2)C1=O [7(iv), 1,3-bis(4-aminobutyl)-5,5-bis(naphtalen-2-yl-methyl)-pyrimidin-2,4,6(1H,3H,5H)-trione] | 16 (≈ 29.1 µM) | (15) | 32 (≈ 58.1 µM) | (8) | 32 (≈ 58.1 µM) | (8) | 32 (≈ 58.1 µM) | (8) | 32 (≈ 58.1 µM) | (8) | 16 (≈ 29.1 µM) | (15) | 1 (≈ 1.82 µM) | 243 (≈ 441 µM) | 4 (≈ 7.26 µM) | (30) | 8 (≈ 14.5 µM) | (30) | 8 (≈ 14.5 µM) | (30) | MIC (S. aureus IHT 99040): 8 µg/mL (≈ 14.5 µM); selectivity index (EC50/MIC) (S. aureus strain WIS): (30); MIC (S. aureus strain WIS): 8 µg/mL (≈ 14.5 µM); selectivity index (EC50/MIC) (S. aureus strain 85/2082): (30); MIC (S. aureus strain 85/2082): 8 µg/mL (≈ 14.5 µM)
